Measurements: patent US20230055961A1, “PENTAFLUOROBENZENESULFONAMIDE DERIVATIVES AND USES THEREOF” (Dunad Therapeutics Ltd., priority 2019, published 2023)
Where two headings read alike, the source gives them in different places.

Experiments:
ERBB4 = ERBB4 (Homo sapiens, UniProt Q15303); assay: In vitro kinase inhibition studies (Table 13), ERBB4; assay type: biochemical
BMX [1] = biological target: T1, BMX (Homo sapiens, UniProt P51813); assay: In vitro kinase inhibition studies (Table 13), BMX; assay type: biochemical
T1 sequence (P51813 1-675): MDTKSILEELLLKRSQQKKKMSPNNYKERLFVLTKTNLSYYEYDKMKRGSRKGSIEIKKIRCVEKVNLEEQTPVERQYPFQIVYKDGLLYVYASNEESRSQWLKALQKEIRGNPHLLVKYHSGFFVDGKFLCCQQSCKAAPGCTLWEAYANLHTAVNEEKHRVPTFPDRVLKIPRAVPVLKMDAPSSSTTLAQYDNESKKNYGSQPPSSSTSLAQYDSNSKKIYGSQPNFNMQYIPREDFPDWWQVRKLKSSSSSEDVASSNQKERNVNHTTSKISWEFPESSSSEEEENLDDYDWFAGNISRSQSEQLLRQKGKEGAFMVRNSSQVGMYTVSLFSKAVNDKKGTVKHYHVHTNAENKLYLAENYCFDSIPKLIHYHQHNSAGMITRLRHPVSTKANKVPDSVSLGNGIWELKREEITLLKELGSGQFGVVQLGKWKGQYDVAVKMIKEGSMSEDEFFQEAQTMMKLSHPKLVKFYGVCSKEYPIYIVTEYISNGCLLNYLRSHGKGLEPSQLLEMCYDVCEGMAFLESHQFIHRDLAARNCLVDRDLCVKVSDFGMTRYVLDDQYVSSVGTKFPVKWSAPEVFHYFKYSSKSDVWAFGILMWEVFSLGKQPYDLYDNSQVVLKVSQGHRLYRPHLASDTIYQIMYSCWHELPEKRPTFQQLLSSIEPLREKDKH

BMX [2] = biological target: T1, BMX; assay: In vitro kinase inhibition studies (Table 9), BMX; assay type: biochemical
EGFR L850R, T790M = EGFR L850R, T790M (Homo sapiens, UniProt P00533, T790M, form not given); assay: In vitro kinase inhibition studies (Table 13), EGFR L850R, T790M; assay type: biochemical
BTK [3] = biological target: T2, BTK (Homo sapiens, UniProt Q06187); assay: Covalent modification of BTK by mass spectrometry of the intact protein; assay type: binding; set-up: His-tagged BTK kinase domain was prepared from pET-28b(+)-BTK (402-655) vector; conditions: 10 μM BTK, 50 μM compound, 2 hours at 30° C.; expected 596 Da
Description: After incubation of 10 μM BTK in the presence of 50 μM Compound 5-1 for 2 hours at 30° C., the mass of the modified protein was determined by mass spectrometry. […] After incubation with Compound 5-1, the intensity of this had decreased by an order of magnitude, and the most intense peak is consistent with the protein whose mass was increased by 595 Da, corresponding closely to the expected mass of the inhibitor Compound 5-1 (less one fluoride from inhibitor, and one proton from protein, 596 Da).
Target sequence in this assay (Q06187 402-655 limits assumed, species assumed): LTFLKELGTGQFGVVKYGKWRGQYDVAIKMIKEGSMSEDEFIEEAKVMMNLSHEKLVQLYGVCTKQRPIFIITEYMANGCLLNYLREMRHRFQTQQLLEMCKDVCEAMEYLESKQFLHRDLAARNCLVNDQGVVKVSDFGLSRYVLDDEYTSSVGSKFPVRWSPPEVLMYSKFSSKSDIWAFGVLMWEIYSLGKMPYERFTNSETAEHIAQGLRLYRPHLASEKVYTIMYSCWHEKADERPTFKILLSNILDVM

BTK [4] = biological target: T2, BTK; assay: In vitro BTK inhibition, biochemical IC50 (no preincubation); conditions: Table 7
Description: IC50 Values (nM) for the Inhibition of BTK Activity
In vitro BTK and JAK3 inhibition studies are shown in Table 7 and Table 8 (no preincubation).
Target sequence in this assay (Q06187 whole entry, species assumed, the tested form may be a part): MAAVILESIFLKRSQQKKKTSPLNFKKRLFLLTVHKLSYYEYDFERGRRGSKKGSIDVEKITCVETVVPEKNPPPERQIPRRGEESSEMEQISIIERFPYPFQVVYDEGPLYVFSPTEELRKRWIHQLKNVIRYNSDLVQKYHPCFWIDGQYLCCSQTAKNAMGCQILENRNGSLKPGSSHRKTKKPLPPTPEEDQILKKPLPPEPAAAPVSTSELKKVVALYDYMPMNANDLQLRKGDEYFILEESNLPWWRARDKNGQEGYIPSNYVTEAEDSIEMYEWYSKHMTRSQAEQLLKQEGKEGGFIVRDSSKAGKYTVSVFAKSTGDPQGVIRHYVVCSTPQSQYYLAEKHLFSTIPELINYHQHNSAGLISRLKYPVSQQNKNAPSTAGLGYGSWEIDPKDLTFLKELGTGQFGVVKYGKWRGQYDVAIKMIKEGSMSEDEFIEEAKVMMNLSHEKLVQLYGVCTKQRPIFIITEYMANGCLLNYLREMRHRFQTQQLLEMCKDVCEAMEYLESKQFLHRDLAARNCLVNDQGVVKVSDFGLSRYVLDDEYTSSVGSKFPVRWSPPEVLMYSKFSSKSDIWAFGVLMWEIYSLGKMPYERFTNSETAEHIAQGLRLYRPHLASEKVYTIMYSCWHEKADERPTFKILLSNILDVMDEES

SRC = SRC (Homo sapiens, UniProt P12931); assay: In vitro kinase inhibition studies (Table 13), SRC; assay type: biochemical
ERBB2 = ERBB2 (Homo sapiens, UniProt P04626); assay: In vitro kinase inhibition studies (Table 13), ERBB2; assay type: biochemical
FGFR2 = FGFR2 (Homo sapiens, UniProt P21802); assay: In vitro kinase inhibition studies (Table 13), FGFR2; assay type: biochemical
EGFR = EGFR (Homo sapiens, UniProt P00533); assay: In vitro kinase inhibition studies (Table 13), EGFR; assay type: biochemical
MAP2K7 = MAP2K7 (Homo sapiens, UniProt O14733); assay: In vitro kinase inhibition studies (Table 13), MAP2K7; assay type: biochemical
RL cells = assay: IC50 of Ibrutinib analogs against human cancer cells, RL cells (Table 14); assay type: cell-based; conditions: for IC50: Homo sapiens, RL, read-out: RL (IC50)
Description: 1×10^4 cells (NHF cells)/well are plated in 96-well assay plates in culture medium. […] After 24 hrs, test compounds and vehicle controls are added to appropriate wells so the final volume is 100p in each well. The cells are cultured for the desired test exposure period (72 hrs) at 37° C. and 5% CO2. The assay plates are removed from 37° C. incubator and 20 μl/well of CellTiter-Blue® Reagent is added. The plates are incubated using standard cell culture conditions for 1-4 hours and the plates are shaken for 10 seconds and record fluorescence at 560/590 nm. […] Therapeutic index=(IC50 human fibroblasts/IC50 […] )

FGFR = assay: In vitro kinase inhibition studies (Table 13), FGFR; assay type: biochemical
FGFR1 = FGFR1 (Homo sapiens, UniProt P11362); assay: In vitro kinase inhibition studies (Table 9), FGFR1; assay type: biochemical
BTK [5] = biological target: T2, BTK; assay: Enzyme kinetic analysis of BTK inhibition (time-dependent inhibition); assay type: biochemical; conditions: 0.1 nM BTK, 500 μM ATP, 60-700 nM compound
Text: One of ordinary skill in the art will recognize that this is consistent with the irreversible inhibition of BTK by Compound 5-1.
Target sequence in this assay (Q06187 whole entry, species assumed, the tested form may be a part): as above

[6] = system: normal pooled human fibroblasts; assay: IC50 of Ibrutinib analogs against normal human cells, pooled human fibroblasts (Table 14); assay type: cell-based; conditions: Fibroblast, Table 14, normal human cell line
Description: Anti-cancer efficacy of exemplary compounds of this application is assessed in vitro in different cancer cell lines. Cell viability is examined following treatment at various concentration of inhibitor (0.097656-50 μM) using a cell Titer-Blue cell viability assay. 1×10^4 cells (NHF cells)/well are plated in 96-well assay plates in culture medium. All cells are grown in DMEM, IMDM and RPMI-1640 supplemented with 10% FBS. After 24 hrs, test compounds and vehicle controls are added to appropriate wells so the final volume is […] in each well. The cells are cultured for the desired test exposure period (72 hrs) at 37° C. and 5% CO2. The assay plates are removed from 37° C. incubator and 20 μl/well of CellTiter-Blue® Reagent is added. The plates are incubated using standard cell culture conditions for 1-4 hours and the plates are shaken for 10 seconds and record fluorescence at 560/590 nm.
Therapeutic index=(IC50 human fibroblasts/IC50 RLcells)

Sequence of MAP2K7 (O14733 whole entry, species assumed): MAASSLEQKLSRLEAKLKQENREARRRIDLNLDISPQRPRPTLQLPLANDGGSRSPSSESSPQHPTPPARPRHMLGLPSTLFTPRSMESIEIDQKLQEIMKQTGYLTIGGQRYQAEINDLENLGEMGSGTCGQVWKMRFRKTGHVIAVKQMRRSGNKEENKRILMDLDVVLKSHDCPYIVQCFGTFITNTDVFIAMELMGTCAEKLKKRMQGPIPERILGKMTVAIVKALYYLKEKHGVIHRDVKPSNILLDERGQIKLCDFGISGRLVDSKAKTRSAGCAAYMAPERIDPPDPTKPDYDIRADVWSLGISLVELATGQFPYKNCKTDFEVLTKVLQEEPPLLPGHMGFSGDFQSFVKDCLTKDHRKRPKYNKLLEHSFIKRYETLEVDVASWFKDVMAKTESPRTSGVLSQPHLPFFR
Sequence of FGFR2 (P21802 22-821, species assumed): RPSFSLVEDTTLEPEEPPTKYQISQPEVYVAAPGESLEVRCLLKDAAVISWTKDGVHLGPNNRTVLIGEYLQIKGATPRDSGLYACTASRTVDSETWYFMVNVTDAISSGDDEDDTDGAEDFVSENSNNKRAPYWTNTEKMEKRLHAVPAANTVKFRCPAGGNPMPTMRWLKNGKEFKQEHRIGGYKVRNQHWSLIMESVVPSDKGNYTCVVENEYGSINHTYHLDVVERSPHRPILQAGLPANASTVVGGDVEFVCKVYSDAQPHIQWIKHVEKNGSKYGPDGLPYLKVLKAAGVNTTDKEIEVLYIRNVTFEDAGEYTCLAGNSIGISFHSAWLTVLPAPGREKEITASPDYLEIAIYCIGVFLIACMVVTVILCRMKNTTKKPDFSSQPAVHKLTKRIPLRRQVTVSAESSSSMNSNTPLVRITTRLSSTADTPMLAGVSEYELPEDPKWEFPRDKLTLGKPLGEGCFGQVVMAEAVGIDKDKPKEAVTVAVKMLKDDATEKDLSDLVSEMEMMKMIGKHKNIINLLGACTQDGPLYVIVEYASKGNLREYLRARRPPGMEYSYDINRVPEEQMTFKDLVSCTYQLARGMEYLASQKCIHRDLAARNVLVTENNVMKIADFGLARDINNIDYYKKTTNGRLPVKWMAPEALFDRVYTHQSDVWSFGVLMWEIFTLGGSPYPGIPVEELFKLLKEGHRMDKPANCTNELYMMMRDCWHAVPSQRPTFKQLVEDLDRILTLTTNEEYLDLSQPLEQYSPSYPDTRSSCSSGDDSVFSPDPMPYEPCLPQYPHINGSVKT
Sequence of ERBB4 (Q15303 26-1308, species assumed): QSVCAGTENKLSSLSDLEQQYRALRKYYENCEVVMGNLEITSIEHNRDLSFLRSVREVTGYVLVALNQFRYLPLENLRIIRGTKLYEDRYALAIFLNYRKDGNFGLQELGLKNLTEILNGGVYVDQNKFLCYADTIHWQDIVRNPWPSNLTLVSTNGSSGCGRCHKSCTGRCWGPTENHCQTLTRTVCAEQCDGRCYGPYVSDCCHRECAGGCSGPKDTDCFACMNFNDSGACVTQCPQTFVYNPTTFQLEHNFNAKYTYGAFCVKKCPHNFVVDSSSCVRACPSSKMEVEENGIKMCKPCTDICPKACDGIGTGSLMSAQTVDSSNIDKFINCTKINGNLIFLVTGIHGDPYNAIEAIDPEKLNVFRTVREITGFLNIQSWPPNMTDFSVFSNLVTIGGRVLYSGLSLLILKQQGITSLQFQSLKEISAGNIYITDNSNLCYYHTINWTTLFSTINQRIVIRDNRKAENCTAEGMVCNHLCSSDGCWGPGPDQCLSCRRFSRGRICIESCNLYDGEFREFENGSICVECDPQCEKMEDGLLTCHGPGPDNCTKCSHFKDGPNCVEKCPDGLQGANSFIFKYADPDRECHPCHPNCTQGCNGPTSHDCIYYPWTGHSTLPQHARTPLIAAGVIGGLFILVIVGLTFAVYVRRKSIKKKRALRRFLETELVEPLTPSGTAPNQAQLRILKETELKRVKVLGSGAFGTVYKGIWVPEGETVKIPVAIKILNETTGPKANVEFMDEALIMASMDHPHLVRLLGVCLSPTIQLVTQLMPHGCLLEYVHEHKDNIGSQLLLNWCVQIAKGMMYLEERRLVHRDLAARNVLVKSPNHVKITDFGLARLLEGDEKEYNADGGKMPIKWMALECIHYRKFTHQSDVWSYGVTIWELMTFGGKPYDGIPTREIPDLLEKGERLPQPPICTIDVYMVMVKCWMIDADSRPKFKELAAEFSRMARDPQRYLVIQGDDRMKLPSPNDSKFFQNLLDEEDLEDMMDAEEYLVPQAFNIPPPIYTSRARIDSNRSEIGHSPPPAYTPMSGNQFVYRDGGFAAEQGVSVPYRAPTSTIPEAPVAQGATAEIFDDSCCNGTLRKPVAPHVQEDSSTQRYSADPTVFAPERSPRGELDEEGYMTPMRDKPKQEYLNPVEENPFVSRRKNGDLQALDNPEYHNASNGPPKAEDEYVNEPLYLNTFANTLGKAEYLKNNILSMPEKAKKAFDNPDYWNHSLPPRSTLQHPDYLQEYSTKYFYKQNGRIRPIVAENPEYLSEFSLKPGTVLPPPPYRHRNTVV
Sequence of EGFR L850R, T790M (P00533 whole entry T790M/L858R, form open, the tested form may be a part): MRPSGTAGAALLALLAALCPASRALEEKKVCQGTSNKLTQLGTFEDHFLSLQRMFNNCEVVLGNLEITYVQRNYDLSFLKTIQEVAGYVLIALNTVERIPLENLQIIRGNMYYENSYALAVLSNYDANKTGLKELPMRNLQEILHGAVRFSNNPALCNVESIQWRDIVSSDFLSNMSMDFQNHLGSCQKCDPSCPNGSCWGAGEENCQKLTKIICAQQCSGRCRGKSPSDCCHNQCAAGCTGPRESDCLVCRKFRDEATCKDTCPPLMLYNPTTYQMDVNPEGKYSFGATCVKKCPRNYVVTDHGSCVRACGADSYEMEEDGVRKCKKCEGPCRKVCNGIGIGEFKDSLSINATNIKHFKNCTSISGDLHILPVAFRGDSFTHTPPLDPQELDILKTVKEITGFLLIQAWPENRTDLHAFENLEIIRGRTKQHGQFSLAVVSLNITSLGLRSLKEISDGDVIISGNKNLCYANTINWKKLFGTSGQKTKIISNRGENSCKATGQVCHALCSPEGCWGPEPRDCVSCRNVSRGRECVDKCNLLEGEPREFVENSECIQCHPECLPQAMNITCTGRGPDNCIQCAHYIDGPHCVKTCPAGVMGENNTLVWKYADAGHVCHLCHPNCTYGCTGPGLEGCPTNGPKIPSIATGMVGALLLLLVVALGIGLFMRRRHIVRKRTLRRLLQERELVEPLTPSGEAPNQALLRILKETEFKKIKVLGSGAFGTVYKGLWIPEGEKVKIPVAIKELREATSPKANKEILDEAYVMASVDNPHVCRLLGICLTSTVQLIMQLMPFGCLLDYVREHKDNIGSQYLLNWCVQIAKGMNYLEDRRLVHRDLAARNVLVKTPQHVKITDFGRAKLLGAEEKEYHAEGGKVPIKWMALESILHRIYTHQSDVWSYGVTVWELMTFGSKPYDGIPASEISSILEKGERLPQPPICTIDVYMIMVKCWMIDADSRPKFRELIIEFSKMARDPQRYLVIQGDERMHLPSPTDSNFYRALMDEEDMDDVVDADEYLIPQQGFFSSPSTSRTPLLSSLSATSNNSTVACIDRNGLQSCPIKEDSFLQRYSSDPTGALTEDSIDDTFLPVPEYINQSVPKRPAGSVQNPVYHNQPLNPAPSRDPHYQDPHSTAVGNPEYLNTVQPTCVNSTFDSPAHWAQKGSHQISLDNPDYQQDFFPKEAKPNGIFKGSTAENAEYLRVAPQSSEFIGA

IC50 (ERBB4): 100 to 1000 nM
IC50 (BMX [1]): 0.1 to 10 nM
IC50 (BMX [2]): 0.1 to 10 nM
IC50 (EGFR L850R, T790M): 100 to 1000 nM
mass increase of BTK protein after incubation with compound (BTK [3]): 595 Da
IC50 (BTK [4]): 10 to 100 nM
IC50 (SRC): 100 to 1000 nM
IC50 (ERBB2): 100 to 1000 nM
IC50 (FGFR2): 100 to 1000 nM
IC50 (EGFR): 100 to 1000 nM
IC50 (MAP2K7): 10 to 100 nM
IC50 (RL cells; TABLE 9): 1610 nM
IC50 (RL cells; Table 14, RL human non-Hodgkin's lymphoma B cell line): 2740 nM
IC50 (FGFR): 100 to 1000 nM
IC50 (FGFR1): 10 to 300 nM
inhibition profile of BTK by enzyme kinetic analysis (BTK [5]): time-dependent inhibition
SMILES: Nc1ncnc2c1c(-c1ccc(Oc3ccccc3)cc1)nn2[C@@H]1CCCN(S(=O)(=O)c2c(F)c(F)c(F)c(F)c2F)C1 [Compound 5-1, (R)-1-(1-((perfluorophenyl)sulfonyl)piperidin-3-yl)-3-(4-phenoxyphenyl)-1H-pyrazolo[3,4-d]pyrimidin-4-amine]
cell-based efficacy compared with Ibrutinib (RL cells; RL cells): better cell-based efficacy
IC50 [6]: 6200 nM
